Patent US20060241301A1, “Urea derivatives and their use as tyrosinkinase inhibitors” (priority 2003, published 2006)

What was measured:
[1] = target: TIE-2 (Homo sapiens, UniProt Q02763); assay: TIE-2 kinase flashplate assay (phosphorylation of poly(Glu, Tyr), 33P-ATP); format: biochemical; conditions: read-out: Inhibition by TIE-2 IC50
Description: The TIE-2 tests can be carried out, for example, analogously to the methods indicated in WO 02/44156.
The assay determines the inhibiting activity of the substances to be tested in the phosphorylation of the substrate poly(Glu, Tyr) by Tie-2 kinase in the presence of radioactive ^33P-ATP. The phosphorylated substrate binds to the surface of a “flashplate” microtitre plate during the incubation time. After removal of the reaction mixture, the microtitre plate is washed a number of times and the radioactivity on its surface is subsequently measured. An inhibiting effect of the substances to be measured results in lower radioactivity compared with an undisturbed enzymatic reaction.

[2] = target: RAF; assay: RAF kinase inhibition; format: biochemical

TIE-2, sequence (Q02763 23-1124, species assumed): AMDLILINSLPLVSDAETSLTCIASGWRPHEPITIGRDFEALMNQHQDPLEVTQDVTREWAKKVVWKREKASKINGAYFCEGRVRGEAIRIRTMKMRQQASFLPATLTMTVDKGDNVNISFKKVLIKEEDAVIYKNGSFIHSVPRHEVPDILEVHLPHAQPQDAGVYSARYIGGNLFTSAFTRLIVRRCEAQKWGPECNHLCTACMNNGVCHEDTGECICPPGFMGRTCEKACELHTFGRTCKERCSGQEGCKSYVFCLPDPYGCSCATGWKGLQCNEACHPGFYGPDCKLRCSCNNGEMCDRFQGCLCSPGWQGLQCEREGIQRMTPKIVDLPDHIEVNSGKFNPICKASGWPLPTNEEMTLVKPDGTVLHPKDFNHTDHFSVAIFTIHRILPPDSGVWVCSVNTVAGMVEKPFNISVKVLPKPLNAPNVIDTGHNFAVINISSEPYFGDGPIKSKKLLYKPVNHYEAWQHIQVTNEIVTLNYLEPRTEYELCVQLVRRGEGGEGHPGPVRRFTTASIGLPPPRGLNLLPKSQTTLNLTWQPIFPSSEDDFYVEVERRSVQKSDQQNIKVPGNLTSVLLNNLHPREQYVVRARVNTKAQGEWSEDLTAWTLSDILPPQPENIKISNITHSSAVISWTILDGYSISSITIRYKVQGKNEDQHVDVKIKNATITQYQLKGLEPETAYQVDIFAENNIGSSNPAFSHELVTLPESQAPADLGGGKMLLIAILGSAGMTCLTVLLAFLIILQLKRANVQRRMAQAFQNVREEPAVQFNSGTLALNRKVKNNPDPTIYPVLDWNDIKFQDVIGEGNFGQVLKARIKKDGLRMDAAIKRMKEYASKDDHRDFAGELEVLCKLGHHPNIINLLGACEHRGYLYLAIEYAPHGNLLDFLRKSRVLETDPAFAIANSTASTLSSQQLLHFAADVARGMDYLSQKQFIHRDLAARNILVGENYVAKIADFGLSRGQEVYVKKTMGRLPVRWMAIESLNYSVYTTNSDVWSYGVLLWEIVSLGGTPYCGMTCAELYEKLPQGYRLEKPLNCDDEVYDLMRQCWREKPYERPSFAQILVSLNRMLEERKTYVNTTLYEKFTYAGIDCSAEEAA

SMILES | IC50 [1] [nM] | IC50 [2] [nM]
CNC(=O)c1cc(Oc2ccc(NC(=O)Nc3cc(C(F)(F)F)ccc3F)cc2)ccn1 [No. 2, N-methyl-4-{4-[3-(fluorotrifluoromethylphenyl)ureido]phenoxy}pyridine-2-carboxamide] | 32 | 
O=C(Nc1ccc(Oc2ccc3nsnc3c2)cc1)Nc1cc(C(F)(F)F)ccc1F [A1, 1-[4-(Benzo-1,2,5-thiadiazol-5-yloxy)phenyl]-3-(2-fluoro-5-trifluoromethylphenyl)urea] | 57 | 220
CNC(=O)c1cc(Oc2ccc(NC(=O)Nc3ccc(Cl)c(C(F)(F)F)c3)cc2)ccn1 |  | 264
